{"source": "patent US11661420B2", "about": "(NANJING HEPO PHARMACEUTICAL CO., LTD, priority 2019, dated 2023)", "key": {"[1]": {"conditions": "read-out: CC50 cytotoxicity; cited from earlier work"}, "HBV DNA [2]": {"test_system": "HBV DNA", "conditions": "cited from earlier work"}, "HBsAg": {"test_system": "HBsAg", "conditions": "cited from earlier work"}, "HBV e antigen (HBeAg)": {"test_system": "HBV e antigen (HBeAg)", "test": "Cryopreserved PHH assay, ELISA of hepatitis B e antigen in culture supernatant", "assay_type": "cell-based, type D HBV in human primary hepatocytes (PHH)", "conditions": "Hepatitis B virus, 240 h, read-out: HBeAg EC50", "experimental": "(§1) The inhibitory effect of the compounds on HBV was evaluated by real-time quantitative qPCR assay (real time-qPCR) to detect the HBV DNA content in human primary hepatocytes (PHH) culture supernatant, and ELISA to detect the hepatitis B surface antigen and e antigen content, the EC50 value of the compounds was used as an indicator; meanwhile, the cell viability was detected by CellTiter-Glo to evaluate the toxicity of the compounds to cells.\n(§2) 3.1. On day 0, PHH (1.32×10^5 cells/well) was seeded into a 48-well plate and incubated overnight at 37° C., 5% CO2.\n(§3) 3.2. On the first day, PHH was infected with type D HBV (concentrated from HepDE19 cell culture supernatant).\n(§4) 3.3 On the second day, the test compound was diluted to 7 concentrations with 5-fold serial dilution. Reference compound Peg-IFN-α 2a, 7 concentrations with 3-fold serial dilution. Compounds with different concentrations were added to the culture wells, and the wells were double-duplicated wells. The final concentration of DMSO in the culture medium was 2%.\n(§5) 3.4 On the 4th, 6th, and 8th day, the culture medium was replaced by a fresh culture medium containing the compound.\n(§6) 3.5 After collecting the culture supernatant from the culture well on the 10th day, the cell viability was tested with CellTiter-Glo. A portion of the culture supernatant was collected for ELISA determination to detect the content of hepatitis B virus surface antigen and e antigen; a portion of the sample was collected for extract DNA using a high-throughput DNA purification kit, referring to the product instructions for the specific steps.\n(§7) 3.7 ELISA determination of hepatitis B virus surface antigen and e antigen\n(§8) The specific steps can be referred to the product manual, the steps are briefly described as follows: 50 μL of sample and standard was added to the reaction plate respectively, 50 μL of enzyme conjugate was added to each well, the mixture was shaken and mixed well, then kept in a warm bath at 37° C. for 60 minutes, the plate was washed with washing solution for 5 times, 50 μL of the luminescent substrate was added to each well, the mixture was mixed well, and the reaction was carried out in the dark at room temperature for 10 minutes, and finally the chemiluminescence intensity was detected with the instrument.\n(§9) Calculation of the inhibition percentage of HBV DNA, HBV surface antigen and e antigen. % Inh.=(1−value of the sample/value of DMSO control)×100."}, "HBV DNA [3]": {"test_system": "HBV DNA", "test": "Cryopreserved PHH assay, real-time qPCR of HBV DNA in culture supernatant", "assay_type": "cell-based, type D HBV in human primary hepatocytes (PHH)", "conditions": "Hepatitis B virus, 240 h; PHH infected with type D HBV, supernatant day 10, qPCR", "experimental": "as §1, §2, §3, §4, §5, §6\n3.6 Quantitative PCR to detect the content of HBV DNA\nThe qPCR reaction mixture, sample and standard were added to the 384 well reaction plate. PCR reactions: 95° C., 10 min; 95° C., 15 sec, 60° C., 1 min, 40 cycles.\nas §9"}, "[4]": {"test": "Cryopreserved PHH assay, cell viability by CellTiter-Glo", "assay_type": "cell-based", "conditions": "human, cryopreserved primary human hepatocytes (PHH), day 10, CellTiter-Glo", "experimental": "as §1, §2, §4, §5, §6\nCalculation of the percentage of cell viability: % viability=the luminescence value of the sample/the luminescence value of the DMSO control×100."}, "[5]": {"test_system": "HBV surface antigen (HBsAg)", "test": "Cryopreserved PHH assay, ELISA of hepatitis B surface antigen in culture supernatant", "assay_type": "cell-based, type D HBV in human primary hepatocytes (PHH)", "conditions": "Hepatitis B virus, 240 h, read-out: HBsAg EC50", "experimental": "as §1, §2, §3, §4, §5, §6, §7, §8, §9"}}, "note": "Read-outs that look alike come from different tables or passages of the source."}
{"molecule": "Clc1cc2nc(N3CCN(c4ccccn4)CC3)[nH]c2cc1Cl", "note": "[BM601]", "values": [{"measurement": "CC50", "setting": "[1]", "result": 24500, "unit": "nM"}, {"measurement": "EC50", "setting": "HBV DNA [2]", "result": 600, "unit": "nM"}, {"measurement": "EC50", "setting": "HBsAg", "result": 1500, "unit": "nM"}]}
{"molecule": "CC1(C)N=C(c2cc(-c3ccc(C(=O)O)cc3)c[nH]2)Nc2c(Cl)cccc21", "note": "[Compound I-51, 4-(5-(8-chloro-4,4-dimethyl-1,4-dihydroquinazolin-2-yl)-1H-pyrrol-3-yl)benzoic acid]", "values": [{"measurement": "EC50", "setting": "HBV e antigen (HBeAg)", "result": 10, "unit": "nM"}, {"measurement": "EC50", "setting": "HBV DNA [3]", "result": 9.7, "unit": "nM"}, {"measurement": "CC50 at 8 days", "setting": "[4]", "result": "> 50000", "unit": "nM"}, {"measurement": "EC50", "setting": "[5]", "result": "> 50000", "unit": "nM"}]}
{"molecule": "CC1(C)N=C(c2nc(-c3ccc(C(=O)O)cc3)co2)Nc2c(Cl)cccc21", "note": "[Compound I-53, 4-(2-(8-chloro-4,4-dimethyl-1,4-dihydroquinazolin-2-yl)oxazol-4-yl)benzoic acid]", "values": [{"measurement": "EC50", "setting": "HBV e antigen (HBeAg)", "result": 5.6, "unit": "nM"}, {"measurement": "EC50", "setting": "HBV DNA [3]", "result": 8.4, "unit": "nM"}, {"measurement": "CC50 at 8 days", "setting": "[4]", "result": "> 50000", "unit": "nM"}, {"measurement": "EC50", "setting": "[5]", "result": 115, "unit": "nM"}]}
{"molecule": "CC1(C)N=C(c2nc(-c3ccc(C(=O)O)cc3)c[nH]2)Nc2ccccc21", "note": "[Compound I-54, 4-(2-(4,4-dimethyl-1,4-dihydroquinazolin-2-yl)-1H-imidazol-4-yl)benzoic acid]", "values": [{"measurement": "EC50", "setting": "HBV e antigen (HBeAg)", "result": 41, "unit": "nM"}, {"measurement": "EC50", "setting": "HBV DNA [3]", "result": 25, "unit": "nM"}, {"measurement": "CC50 at 8 days", "setting": "[4]", "result": "> 50000", "unit": "nM"}, {"measurement": "EC50", "setting": "[5]", "result": 326, "unit": "nM"}]}
{"molecule": "CC1(C)N=C(c2nc(-c3ccc(C(=O)O)cc3)cs2)Nc2c(OC(F)(F)F)cccc21", "note": "[Compound I-65, 4-(2-(4,4-dimethyl-8-trifluoromethoxyl-1,4-dihydroquinazolin-2-yl)thiazol-4-yl)benzoic acid]", "values": [{"measurement": "EC50", "setting": "HBV e antigen (HBeAg)", "result": 3.3, "unit": "nM"}, {"measurement": "EC50", "setting": "HBV DNA [3]", "result": 3, "unit": "nM"}, {"measurement": "CC50 at 8 days", "setting": "[4]", "result": "> 50000", "unit": "nM"}, {"measurement": "EC50", "setting": "[5]", "result": 39.5, "unit": "nM"}]}
{"molecule": "CC1(C)N=C(c2nc(-c3ccc(C(=O)NS(C)(=O)=O)cc3)cs2)Nc2ccccc21", "note": "[Compound I-66]", "values": [{"measurement": "EC50", "setting": "HBV e antigen (HBeAg)", "result": 31.7, "unit": "nM"}, {"measurement": "EC50", "setting": "HBV DNA [3]", "result": 30.4, "unit": "nM"}, {"measurement": "CC50 at 8 days", "setting": "[4]", "result": "> 50000", "unit": "nM"}, {"measurement": "EC50", "setting": "[5]", "result": 369, "unit": "nM"}]}
{"molecule": "CC1(C)OC(c2nc(-c3ccc(C(=O)O)cc3)cs2)=Nc2ccccc21", "note": "[Compound I-67, 4-(2-(4,4-dimethyl-4H-benzo[d] [1,3]oxazin-2-yl)thiazol-4-yl)benzoic acid]", "values": [{"measurement": "EC50", "setting": "HBV e antigen (HBeAg)", "result": 4.2, "unit": "nM"}, {"measurement": "EC50", "setting": "HBV DNA [3]", "result": 17.9, "unit": "nM"}, {"measurement": "CC50 at 8 days", "setting": "[4]", "result": "> 50000", "unit": "nM"}, {"measurement": "EC50", "setting": "[5]", "result": 147, "unit": "nM"}]}
{"molecule": "CC1(C)N=C(c2nc(-c3ccc(C(=O)O)cc3)cs2)Oc2ccccc21", "note": "[Compound I-68, 4-(2-(4,4-dimethyl-4H-benzo[e] [1,3]oxazin-2-yl)thiazol-4-yl)benzoic acid]", "values": [{"measurement": "EC50", "setting": "HBV e antigen (HBeAg)", "result": 17, "unit": "nM"}, {"measurement": "EC50", "setting": "HBV DNA [3]", "result": 81.1, "unit": "nM"}, {"measurement": "CC50 at 8 days", "setting": "[4]", "result": "> 50000", "unit": "nM"}, {"measurement": "EC50", "setting": "[5]", "result": 582, "unit": "nM"}]}
{"molecule": "CCC1(CC)N=C(c2nc(-c3ccc(C(=O)O)cc3)cs2)Nc2ccccc21", "note": "[Compound I-69, 4-(2-(4,4-diethyl-1,4-dihydroquinazolin-2-yl)thiazol-4-yl)benzoic acid]", "values": [{"measurement": "EC50", "setting": "HBV e antigen (HBeAg)", "result": 11.3, "unit": "nM"}, {"measurement": "EC50", "setting": "HBV DNA [3]", "result": 17.1, "unit": "nM"}, {"measurement": "CC50 at 8 days", "setting": "[4]", "result": "> 50000", "unit": "nM"}, {"measurement": "EC50", "setting": "[5]", "result": 56.3, "unit": "nM"}]}
{"molecule": "CC1(C)N=C(c2nc(-c3ccc(C(=O)O)cc3)cs2)Nc2c(F)cc(F)cc21", "note": "[Compound I-70, 4-(2-(6,8-difluoro-4,4-dimethyl-1,4-dihydroquinazolin-2-yl)thiazol-4-yl)benzoic acid]", "values": [{"measurement": "EC50", "setting": "HBV e antigen (HBeAg)", "result": 5.2, "unit": "nM"}, {"measurement": "EC50", "setting": "HBV DNA [3]", "result": 7.12, "unit": "nM"}, {"measurement": "CC50 at 8 days", "setting": "[4]", "result": "> 50000", "unit": "nM"}, {"measurement": "EC50", "setting": "[5]", "result": 40.7, "unit": "nM"}]}
{"molecule": "CC1(C)N=C(c2nc(-c3ccc(C(N)=O)cc3)cs2)Nc2ccccc21", "note": "[Compound I-71, 4-(2-(4,4-dimethyl-1,4-dihydroquinazolin-2-yl)thiazol-4-yl)benzamide]", "values": [{"measurement": "EC50", "setting": "HBV e antigen (HBeAg)", "result": 14.7, "unit": "nM"}, {"measurement": "EC50", "setting": "HBV DNA [3]", "result": 31.6, "unit": "nM"}, {"measurement": "CC50 at 8 days", "setting": "[4]", "result": "> 50000", "unit": "nM"}, {"measurement": "EC50", "setting": "[5]", "result": 92.4, "unit": "nM"}]}
{"molecule": "CC1(C)N=C(c2nc(-c3ccc(-c4nnn[nH]4)cc3)cs2)Nc2ccccc21", "note": "[Compound I-72]", "values": [{"measurement": "EC50", "setting": "HBV e antigen (HBeAg)", "result": 8050, "unit": "nM"}, {"measurement": "EC50", "setting": "HBV DNA [3]", "result": 8090, "unit": "nM"}, {"measurement": "CC50 at 8 days", "setting": "[4]", "result": "> 50000", "unit": "nM"}, {"measurement": "EC50", "setting": "[5]", "result": 17500, "unit": "nM"}]}
{"molecule": "CCOC(=O)c1ccc(-c2csc(C3=NC(C)(C)c4ccccc4N3)n2)cc1", "note": "[Compound I-73]", "values": [{"measurement": "EC50", "setting": "HBV e antigen (HBeAg)", "result": 12, "unit": "nM"}, {"measurement": "EC50", "setting": "HBV DNA [3]", "result": 13.4, "unit": "nM"}, {"measurement": "CC50 at 8 days", "setting": "[4]", "result": "> 50000", "unit": "nM"}, {"measurement": "EC50", "setting": "[5]", "result": 115, "unit": "nM"}]}
